Data as given in patent US12221422B2, “Compounds and their use for the treatment of alpha1-antitrypsin deficiency” (CENTESSA PHARMACEUTICALS (UK) LIMITED, priority 2018, dated 2025).

Experiments:
human Siiyama A1AT = biological target: T1, human Siiyama A1AT (Homo sapiens, UniProt P01009, S77F); assay: A1AT cell secretion assay using HEK-Siiyama cells (ELISA); assay type: cell-based; conditions: 1 or 10 μM, 48 h
T1 construct: expressed in transfected cells; host or cells: HEK-Siiyama (HEK-EBNA cells containing the Siiyama A1AT plasmid)
Experimental: HEK-Siiyama cells, a human embryonic kidney cell line stably transfected with the human Siiyama A1AT gene, were plated into 96 well plates (3.0×10^5 cells/ml with 200 μl of media/well) overnight at 37° C. in a humidified atmosphere containing 5% CO2. Following incubation cells were washed with 200 μl serum-free media three times and media was replaced with serum-free media containing either vehicle, 10 μM suberanilohydroxamic acid (SAHA) or a compound of the invention (at 1 or 10 μM) in replicates of eight for 48 h in a 37° C. incubator in a final volume of 200 μl. […]
Briefly, a 96 well plate was coated with human A1AT capture antibody overnight at room temperature (1:180 dilution from stock, 100 μl final volume/well). […] After which, 50 μl stop solution (2M H2SO4) was added and optical density (OD) of each well was read at 450 nm with 570 nm blank subtracted from each well using a microplate reader. A 4 parameter logistic curve was constructed using GraphPad Prism 7 and A1AT concentrations were determined in each sample by interpolation from a standard curve and multiplying by the appropriate dilution factor.
The amount of human A1AT secreted from transfected HEK-EBNA cells into the media was measured by ELISA. […]

[1] = Plasma protein binding, mouse plasma (rapid equilibrium dialysis); assay type: in vitro ADME; conditions: 37° C.
Experimental: (§1) The extent to which compounds of the invention bound to plasma proteins such as albumin and alpha-1 acid glycoprotein within human, rat or mouse plasma was determined by rapid equilibrium dialysis. Compounds were incubated at 5 μM for 4 hours at 37° C. Plasma protein binding for N,N-dimethyl-4-((6-oxopyrimidin-1(6H)-yl)methyl)benzamide in mouse plasma was 37.3%, in rat plasma was 14.8% and in human plasma was 30.6%.

[2] = Plasma protein binding, human plasma (rapid equilibrium dialysis); assay type: in vitro ADME; conditions: 37° C.
Experimental: as §1

[3] = biological target: cardiac potassium (hERG) channels (Homo sapiens, UniProt Q12809); assay: hERG channel inhibition, Patchliner automated patch clamp; assay type: cell-based; conditions: automated patch clamp, maximum test concentration 100 μM
Experimental: (§2) Compounds of the invention were tested for inhibition of cardiac potassium (hERG) channels using the Patchliner automated patch clamp. 6-Point concentration-response curves were generated using half-log serial dilutions from a maximum final test concentration of 100 μM. IC50 values were obtained from a 4-parameter logistic fit of the concentration-response data. […] Reference compound values were consistent with those presented in the literature (Elkins et al., 2013 J. Pharm. Tox. Meth. 68:11-122).

hERG = hERG (Homo sapiens, UniProt Q12809); assay: as above; assay type: cell-based; conditions: human; at 100 μM
Experimental: as §2

human Z A1AT = human Z A1AT (Homo sapiens, UniProt P01009, E366K); assay: Circulating human Z A1AT levels in huZ mice; assay type: in vivo, huZ mouse; set-up: from tissue; host or cells: huZ (PiZZ) transgenic mice, line Z11.03, C57Bl/6 background; made in liver, measured in plasma; conditions: huZ mice, 5, 15 or 50 mg/kg twice a day by oral gavage, 14 days, plasma days 12-14
Text: The huZ mouse (also referred to as the PiZZ mouse) is a transgenic mouse strain that contains multiple copies of the Z variant of the human A1AT gene, developed by two separate groups Dycaico et al (Science (1988) 242:1409-12) and Carlson et al (J. Clin Invest (1989) 83:1183-90). PiZZ mice are on a C57Bl/6 background and express the human Z A1AT protein in liver tissue. The mice used in this study are from the progeny of Carlson and colleagues (transgenic line Z11.03). […]
HuZ mice (n=4/group; male or female) with basal human A1AT plasma levels of between 200-600 μg/ml were treated with either vehicle or N,N-dimethyl-4-((6-oxopyrimidin-1(6H)-yl)methyl)benzamide at 5, 15 or 50 mg/kg twice a day by oral gavage for 14 consecutive days. […] Human Z A1AT levels in mouse plasma samples were measured by ELISA (Human Serpin A1/α1-antitrypsin duo set ELISA, R& D Systems, DY1268) per manufacturer's instructions.
Briefly, a 96 well plate was coated with human A1AT capture antibody overnight at room temperature (1:180 dilution from stock, 100 μl final volume/well). […] After which, 50 μl stop solution (2M H2SO4) was added and optical density (OD) of each well was read at 450 nm with 570 nm blank subtracted from each well using a microplate reader. […]
The effect of N,N-dimethyl-4-((6-oxopyrimidin-1(6H)-yl)methyl)benzamide on circulating levels of human Z A1AT was assessed in a huZ mouse model. […]

Sequence of human Z A1AT (P01009 25-418 E366K): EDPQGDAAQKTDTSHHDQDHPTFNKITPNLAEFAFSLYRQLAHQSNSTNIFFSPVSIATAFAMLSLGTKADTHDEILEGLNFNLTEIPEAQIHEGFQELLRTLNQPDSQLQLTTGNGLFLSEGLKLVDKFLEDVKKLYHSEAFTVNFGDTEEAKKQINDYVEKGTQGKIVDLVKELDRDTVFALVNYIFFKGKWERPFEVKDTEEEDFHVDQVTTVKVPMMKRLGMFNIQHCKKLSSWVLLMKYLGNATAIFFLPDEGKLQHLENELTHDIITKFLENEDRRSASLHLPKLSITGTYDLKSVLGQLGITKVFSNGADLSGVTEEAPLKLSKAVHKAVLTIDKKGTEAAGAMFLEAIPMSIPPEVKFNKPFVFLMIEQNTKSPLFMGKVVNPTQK
T1 sequence (P01009 25-418 S77F): as the sequence (P01009 25-418 E366K) above, with S53F, K342E counted along it
Sequence of hERG (Q12809 whole entry): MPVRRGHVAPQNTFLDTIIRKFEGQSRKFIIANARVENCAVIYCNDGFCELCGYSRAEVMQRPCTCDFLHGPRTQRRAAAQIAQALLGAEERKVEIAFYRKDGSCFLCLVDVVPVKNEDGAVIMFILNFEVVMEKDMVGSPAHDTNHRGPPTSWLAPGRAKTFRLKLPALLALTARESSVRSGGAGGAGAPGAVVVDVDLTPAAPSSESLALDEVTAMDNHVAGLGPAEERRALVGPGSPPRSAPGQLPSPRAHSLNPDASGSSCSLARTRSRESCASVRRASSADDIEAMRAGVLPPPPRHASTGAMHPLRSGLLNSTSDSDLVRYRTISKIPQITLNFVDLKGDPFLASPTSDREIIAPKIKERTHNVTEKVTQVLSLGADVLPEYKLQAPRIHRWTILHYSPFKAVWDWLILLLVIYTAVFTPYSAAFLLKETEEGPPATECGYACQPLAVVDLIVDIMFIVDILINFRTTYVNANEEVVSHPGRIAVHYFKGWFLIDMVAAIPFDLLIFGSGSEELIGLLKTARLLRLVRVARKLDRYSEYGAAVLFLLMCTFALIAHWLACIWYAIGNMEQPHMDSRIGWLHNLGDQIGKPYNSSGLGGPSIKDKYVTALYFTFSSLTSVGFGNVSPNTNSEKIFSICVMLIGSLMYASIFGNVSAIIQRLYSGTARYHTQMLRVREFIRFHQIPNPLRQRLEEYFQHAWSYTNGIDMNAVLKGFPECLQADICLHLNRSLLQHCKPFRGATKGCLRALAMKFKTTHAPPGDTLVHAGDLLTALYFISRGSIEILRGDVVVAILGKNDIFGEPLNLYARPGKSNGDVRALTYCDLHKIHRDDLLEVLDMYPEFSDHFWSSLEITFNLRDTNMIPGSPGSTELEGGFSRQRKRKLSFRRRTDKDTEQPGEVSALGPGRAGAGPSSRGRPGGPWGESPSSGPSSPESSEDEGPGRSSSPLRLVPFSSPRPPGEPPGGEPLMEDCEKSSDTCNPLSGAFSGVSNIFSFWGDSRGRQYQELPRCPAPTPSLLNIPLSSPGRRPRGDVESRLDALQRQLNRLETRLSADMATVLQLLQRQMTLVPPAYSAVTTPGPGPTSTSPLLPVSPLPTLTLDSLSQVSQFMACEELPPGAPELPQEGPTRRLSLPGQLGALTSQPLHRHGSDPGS
Sequence of cardiac potassium (hERG) channels (Q12809 whole entry): as above

Structure (SMILES): CN(C)C(=O)c1ccc(Cn2cnccc2=O)cc1 [N,N-dimethyl-4-((6-oxopyrimidin-1(6H)-yl)methyl)benzamide]
- secretion of Siiyama A1AT as measured by ELISA (human Siiyama A1AT): does not stimulate secretion of Siiyama A1AT
- fraction unbound at 4 h, 5 μM [1]: 0.627
- fraction unbound at 4 h, 5 μM [2]: 0.694
- IC50 [3]: > 100 µM
- inhibition at 100 µM (hERG): 7%
- circulating human Z A1AT compared to baseline levels (human Z A1AT): stimulates secretion of human Z A1AT compared to baseline levels in huZ mice in a dose dependent manner
